Patent publication US7276502B2, “Thiazoles useful as inhibitors of protein kinases” (Vertex Pharmaceuticals Incorporated, priority 2003, dated 2007)
Like-named read-outs stand apart in the source and are kept apart here.

How the values were obtained:
ZAP-70 = biological target: T1, ZAP-70 (Homo sapiens, UniProt P43403); assay: ZAP-70 inhibition assay (standard coupled enzyme assay); assay type: biochemical; conditions: 100 μM ATP, 20 μM poly-4EY peptide, 30° C., 60 nM ZAP-70
T1 sequence (P43403 1-619): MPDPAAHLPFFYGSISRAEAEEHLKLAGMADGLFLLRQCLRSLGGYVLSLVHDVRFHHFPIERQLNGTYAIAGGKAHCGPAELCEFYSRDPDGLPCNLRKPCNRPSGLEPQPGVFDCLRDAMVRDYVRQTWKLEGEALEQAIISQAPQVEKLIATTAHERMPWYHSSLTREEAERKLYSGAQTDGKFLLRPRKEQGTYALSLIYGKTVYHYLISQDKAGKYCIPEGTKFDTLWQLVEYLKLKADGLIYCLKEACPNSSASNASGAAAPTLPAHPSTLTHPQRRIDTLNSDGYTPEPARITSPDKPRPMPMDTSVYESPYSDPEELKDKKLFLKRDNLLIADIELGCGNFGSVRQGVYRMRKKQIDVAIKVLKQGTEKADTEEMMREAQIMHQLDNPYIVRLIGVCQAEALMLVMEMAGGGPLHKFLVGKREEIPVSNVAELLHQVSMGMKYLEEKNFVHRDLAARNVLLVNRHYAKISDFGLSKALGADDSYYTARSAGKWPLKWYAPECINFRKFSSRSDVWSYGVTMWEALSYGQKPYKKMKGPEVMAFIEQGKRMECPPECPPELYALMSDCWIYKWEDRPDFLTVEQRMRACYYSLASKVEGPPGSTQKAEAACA
Experimental: Compounds were screened for their ability to inhibit ZAP-70 using a standard coupled enzyme assay (Fox et al., Protein Sci. 1998, 7, 2249). Assays were carried out in a mixture of 100 mM HEPES (pH 7.5), 10 mM MgCl2, 25 mM NaCl, 2 mM DTT and 3% DMSO. Final substrate concentrations in the assay were 100 μM ATP (Sigma Chemicals) and 20 μM peptide (poly-4EY, Sigma Chemicals). Assays were carried out at 30° C. and 60 nM ZAP-70. Final concentrations of the components of the coupled enzyme system were 2.5 mM phosphoenolpyruvate, 300 μM NADH, 30 μg/ml pyruvate kinase and 10 μg/ml lactate dehydrogenase.
An assay stock buffer solution was prepared containing all of the reagents listed above, with the exception of ZAP-70 and the test compound of interest of the present invention. 55 μl of the stock solution was placed in a 96 well plate followed by addition of 2 μl of DMSO stock containing serial dilutions of the test compound of the present invention (typically starting from a final concentration of 15 μM). The plate was preincubated for 10 minutes at 30° C. and the reaction initiated by addition of 10 μl of enzyme (final concentration 60 nM). Initial reaction rates were determined with a Molecular Devices SpectraMax Plus plate reader over a 15 minute time course. Ki data was calculated from non-linear regression analysis using the Prism software package (GraphPad Prism version 3.0a for Macintosh, GraphPad Software, San Diego Calif., USA).

SYK = SYK (Homo sapiens, UniProt P43405); assay: SYK inhibition assay (standard coupled enzyme assay); assay type: biochemical
Experimental: Reactions were carried out in 100 mM HEPES (pH 7.5), 10 mM MgCl2, 25 mM NaCl, 1 mM DTT and 1.5% DMSO. Final substrate concentrations in the assay were 200 μM ATP (Sigma chemical Co.) and 4 μM poly Gly-Tyr peptide (Sigma Chemical Co.). Assays were carried out at 30° C. and 200 nM SYK. Final concentrations of the components of the coupled enzyme system were 2.5 mM phosphoenolpyruvate, 300 μM NADH, 30 μg/ml pyruvate kinase and 10 μg/ml lactate dehydrogenase.
An assay stock buffer solution was prepared containing all of the reagents listed above, with the exception of SYK, DTT, and the test compound of interest of the present invention. 56 μl of the test reaction was placed in a 96 well plate followed by the addition of 1 μl of 2 mM DMSO stock containing the test compound of the present invnetion (final compound concentration 30 μM).

[1] = coupled enzyme assay, 200 μM ATP, 4 μM poly Gly-Tyr peptide, 30° C., read-out: Ki (SYK)

Compound	Ki (ZAP-70) [µM]	Ki (SYK; [1]) [µM]	Ki (SYK) [µM]
Cc1cnc(-c2ccnc(Nc3ccc(Cl)c(C)c3)n2)s1 [Example I-29]	≤ 5	≤ 5	–
COc1cc(Nc2nccc(-c3ncc(C)s3)n2)cc(OC)c1OC [Example I-122]	≤ 5	≤ 5	–
Cc1cnc(-c2ccnc(NC3CCCC3)n2)s1 [Example I-81]	≤ 5	≤ 5	–
Cc1cc(C)cc(Nc2nccc(-c3ncc(C(=O)O)s3)n2)c1 [Example I-118]	≤ 5	≤ 5	–
Cc1cc(Nc2nccc(-c3ncc(C)s3)n2)[nH]n1 [Example I-151]	–	≤ 5	–
Cc1cc(C)cc(Nc2nccc(-c3ncc(CN4CCCCC4)s3)n2)c1 [Example I-46]	≤ 5	≤ 5	–
Cc1cc(C)cc(Nc2nccc(-c3ncc(CNc4ccccc4)s3)n2)c1 [Example I-141]	≤ 5	≤ 5	–
Cc1cnc(-c2ccnc(Nc3ccc4c(c3)OCCO4)n2)s1 [Example I-127]	≤ 5	≤ 5	–
Cc1cnc(-c2ccnc(Nc3cccc(N)c3)n2)s1 [Example I-32]	≤ 5	≤ 5	–
Cc1cnc(-c2ccnc(Nc3ccc4c(c3)CC(=O)N4)n2)s1 [Example I-36]	≤ 5	≤ 5	–
Cc1cnc(-c2ccnc(Nc3ccc4ncsc4c3)n2)s1 [Example I-135]	≤ 5	≤ 5	–
Cc1cnc(-c2ccnc(Nc3c(C)cccc3C)n2)s1 [Example I-100]	≤ 5	≤ 5	–
Cc1cnc(-c2ccnc(Nc3ccncc3)n2)s1 [Example I-152]	≤ 5	≤ 5	–
Cc1cc(C)cc(Nc2nccc(-c3ncc(C(=O)N4CCNCC4)s3)n2)c1 [Example I-134]	≤ 5	≤ 5	–
Cc1cc(C)cc(Nc2nccc(-c3ncc(CNc4cccnc4)s3)n2)c1 [Example I-124]	≤ 5	≤ 5	–
Cc1cnc(-c2ccnc(Nc3ccc4c(C)cc(=O)oc4c3)n2)s1 [Example I-34]	≤ 5	≤ 5	–
CC(=O)Nc1cc(C)cc(Nc2nccc(-c3ncc(C)s3)n2)c1 [Example I-154]	≤ 5	≤ 5	–
CCOc1ccc(Nc2nccc(-c3ncc(C)s3)n2)cc1 [Example I-14]	≤ 5	≤ 5	–
Cc1cc(C)cc(Nc2nccc(-c3nc4ccccc4s3)n2)c1 [Example I-63]	≤ 5	≤ 5	–
Cc1cc(C)cc(Nc2nccc(-c3ncc(CO)s3)n2)c1 [Example I-43]	≤ 5	–	≤ 5

Compound	Ki (ZAP-70) [µM]	Ki (SYK; [1]) [µM]	Ki (SYK) [µM]
COCc1cc(N)cc(Nc2nccc(-c3ncc(C)s3)n2)c1 [Example I-156]	≤ 5	≤ 5	–
CC(=O)Nc1ccc(Nc2nccc(-c3ncc(C)s3)n2)cc1 [Example I-157]	–	≤ 5	–
Cc1cc(Nc2nccc(-c3ncc(C)s3)n2)cc(NS(C)(=O)=O)c1 [Example I-155]	≤ 5	≤ 5	–
Cc1cnc(-c2ccnc(Nc3ccc(O)c(C)c3)n2)s1 [Example I-102]	≤ 5	≤ 5	–
OCc1cnc(-c2ccnc(Nc3ccccc3OCc3ccccc3)n2)s1 [Example I-150]	≤ 5	≤ 5	–
COc1cc(Nc2nccc(-c3ncc(Cl)s3)n2)cc(OC)c1OC [Example I-143]	≤ 5	≤ 5	–
COc1cc(Nc2nccc(-c3ncc(CO)s3)n2)cc(C(F)(F)F)c1 [Example I-83]	≤ 5	≤ 5	–
Cc1cc(C)cc(Nc2nccc(-c3ncc(CNCCCO)s3)n2)c1 [Example I-88]	≤ 5	≤ 5	–
Cc1cnc(-c2ccnc(Nc3ccc(N4CCOCC4)cc3)n2)s1 [Example I-91]	≤ 5	≤ 5	–
Cc1cc(C)cc(Nc2nccc(-c3nc(C)c(C)s3)n2)c1 [Example I-70]	≤ 5	≤ 5	–
COc1cc(Nc2nccc(-c3ncc(C)s3)n2)ccc1-c1ccccc1 [Example I-19]	≤ 5	≤ 5	–
OCc1csc(-c2ccnc(Nc3cc(O)cc(C(F)(F)F)c3)n2)n1 [Example I-146]	≤ 5	–	≤ 5
CCN1CCN(Cc2cnc(-c3ccnc(Nc4cc(C)cc(C)c4)n3)s2)CC1 [Example I-47]	≤ 5	≤ 5	–
Cc1cc(C)cc(Nc2nccc(-c3nc(CN)cs3)n2)c1 [Example I-76]	≤ 5	≤ 5	–
CC(=O)Nc1ccc(Nc2nccc(-c3ncc(C)s3)n2)cc1C [Example I-35]	≤ 5	≤ 5	–
Cc1cc(C)cc(Nc2nccc(-c3ncc(N(C)C)s3)n2)c1 [Example I-94]	≤ 5	≤ 5	–
COc1ccc(Nc2nccc(-c3ncc(C)s3)n2)cc1-c1ccccc1 [Example I-16]	≤ 5	≤ 5	–
Cc1cnc(-c2ccnc(Nc3ccc4sc(C)nc4c3)n2)s1 [Example I-114]	≤ 5	≤ 5	–
Cc1cc(C)cc(Nc2nccc(-c3ncc(CN4CCOCC4)s3)n2)c1 [Example I-48]	≤ 5	≤ 5	–
Cc1cc(C)cc(Nc2nccc(-c3ncc(N4CCCCC4)s3)n2)c1 [Example I-74]	≤ 5	≤ 5	–

Compound	Ki (ZAP-70) [µM]	Ki (SYK; [1]) [µM]	Ki (SYK) [µM]
Cc1cnc(-c2ccnc(Nc3ccc(NC(=O)OC(C)(C)C)cc3)n2)s1 [Example I-110]	≤ 5	≤ 5	–
COC(=O)c1ccc(Nc2nccc(-c3ncc(C)s3)n2)cc1C [Example I-106]	≤ 5	≤ 5	–
Cc1cc(C)cc(Nc2nccc(-c3ncc(NCCN)s3)n2)c1 [Example I-142]	≤ 5	≤ 5	–
Cc1cnc(-c2ccnc(Nc3cc(Cl)cc(Cl)c3)n2)s1 [Example I-51]	≤ 5	≤ 5	–
CSc1cccc(Nc2nccc(-c3ncc(C)s3)n2)c1 [Example I-130]	≤ 5	≤ 5	–
Cc1cc(C)cc(Nc2nccc(-c3ncc(C)s3)n2)c1 [Example I-41]	≤ 5	–	≤ 5
Cc1cnc(-c2ccnc(Nc3ccc4[nH]c(C(F)(F)F)nc4c3)n2)s1 [Example I-1]	≤ 5	≤ 5	–
COC(=O)c1cc(Nc2nccc(-c3ncc(C)s3)n2)cc(C(=O)OC)c1 [Example I-121]	≤ 5	≤ 5	–
Cc1cc2cc(Nc3nccc(-c4ncc(C)s4)n3)ccc2[nH]1 [Example I-18]	≤ 5	≤ 5	–
Cc1cnc(-c2ccnc(Nc3ccc4c(c3)C(=O)OC4)n2)s1 [Example I-126]	–	≤ 5	–
Cc1cnc(-c2ccnc(Nc3cc(N)cc(C(F)(F)F)c3)n2)s1 [Example I-89]	≤ 5	≤ 5	–
Cc1cc(C)cc(Nc2nccc(-c3nc(CNCC(=O)OC(C)(C)C)cs3)n2)c1 [Example I-67]	–	≤ 5	–
Cc1cc(C)cc(Nc2nccc(-c3nc(Br)cs3)n2)c1 [Example I-42]	≤ 5	≤ 5	–
CCc1cnc(-c2ccnc(Nc3cc(C)cc(C)c3)n2)s1 [Example I-75]	≤ 5	≤ 5	–
Cc1cnc(-c2ccnc(Nc3ccc(N(C)C)cc3)n2)s1 [Example I-92]	≤ 5	≤ 5	–
Cc1cc(C)cc(Nc2nccc(-c3ncc(CN4CCC[C@H]4CO)s3)n2)c1 [Example I-86]	≤ 5	≤ 5	–
Cc1cc(C)cc(Nc2nccc(-c3nc(CN4CCC(O)C4)cs3)n2)c1 (centres unmarked) [Example I-58]	–	≤ 5	–
CCOP(=O)(Cc1ccc(Nc2nccc(-c3ncc(C)s3)n2)cc1)OCC [Example I-33]	–	–	≤ 5
